Assay results published in patent US7749976B2, “Isolated PTPMT1 protein which mediates insulin production and uses thereof” (The Regents of the University of California, priority 2005, dated 2010).

What was measured:
Assay type in all cases: cell-based, rat
INS-1 832/13 cells [1] = assay: Glucose-stimulated insulin secretion assay; conditions: basal (3 mM) and glucose stimulated (15 mM) conditions, out to 120 min
Method: INS-1 832/13 cells (5×10^6 per reaction) were electroporated as above, and split between 4 wells of a 12-well plate. After 72 hours, cells were washed once with low glucose (3 mM) standard assay buffer (SAB: 114 mM NaCl, 4.7 mM KCl, 1.2 mM KH2PO4, 1.16 mM MgSO4, 20 mM HEPES pH 7.2, 25.5 mM NaHCO3, 10 mM CaCl2, 0.2% BSA), and then preincubated for 2 hours in fresh low glucose SAB. After preincubation, 1 mL of low or high (15 mM) glucose SAB was added to each well. At the end of the incubation time, the SAB was removed and saved, and the cells were washed once in PBS, and lysed by freezing and thawing in a Tris-EDTA solution (20 mM Tris pH 7.4, 20 mM EDTA pH 8.0, 10 mM DTT, protease inhibitors). A Bio-Rad protein assay was performed on each lysate sample to standardize the insulin assay results for protein. The ^125I-insulin Coat-A-Count RIA (Diagnostic Products Corp.) was used to assay SAB samples for insulin content.
To test this, INS-1 832/13 cells were again treated with luciferase (control) or PTPMT1 siRNA. Seventy-two hours post siRNA treatment, cells were washed with PBS, and incubated in media containing 3 mM glucose for 2 hrs to normalize insulin release. Fresh media containing either 3 mM (low) or 15 mM (high) glucose media was then added to the cells and insulin secretion analyzed out to 120 min. […]

INS-1 832/13 cells [2] = assay: ATP and ADP assays in siRNA-treated INS-1 832/13 cells
Method: (§1) PTPMT1 expression in INS-1 832/13 cells was knocked down using 200 pmol of Ambion siRNA (sense: 5′-GUCUGUGGAUGACAAAGAAtt-3′ (SEQ ID NO:3), antisense: UUCUUUGUCAUCCACAGACtt-3′ (SEQ ID NO:4)) in an Amaxa nucleoporator with buffer T on program T-20, according to the manufacturer's protocol. Approximately 72 hrs post siRNA treatment, cells were treated as outlined in the text, pelleted and lysed in 2% TCA via sonication and/or vortexing. Precipitates were pelleted at 13,200 rpm for 2 minutes. The supernatant was removed, neutralized with 0.5 M Tris pH 7.4, and analyzed for ATP using Promega's ENLITEN luciferase bioluminescence reagent at an appropriate dilution. All ATP measurements were normalized to protein levels, as measured by the BCA method (Pierce). ADP levels were determined by converting ADP to ATP with pyruvate kinase, remeasuring ATP by the above assay, and subtracting the initial ATP readings, as reported (Gorman et al., 2003).
Given PTPMT1's likely juxtaposition with members of the respiratory chain on the inner mitochondrial membrane, assessment of PTPMT1's endogenous function was carried out by measuring its effect on cellular ATP levels. […] Seventy-two hours post siRNA treatment, cells were washed and incubated in a 3.0 mM glucose medium for 2 hr. Cells were then lysed and ATP levels analyzed using a luciferase based luminometry reaction. Strikingly, knockdown of PTPMT1 expression increased ATP levels by an average of 82% over control cells across three separate experiments (FIG. 10B). […] ATP/ADP ratio (FIG. 10C). […] AMPK serves as a sensor of cellular energy status, becoming dephosphorylated (inactivated) when the cellular AMP:ATP ratio decreases. Consistent with the above data, AMPK is more highly phosphorylated in the control cells following the above incubation in low glucose (FIG. 10D). Thus, knockdown of PTPMT1 results in a true increase in cellular energy status, as opposed to merely a general increase in the cellular adenine pool.

PTPMT1 = assay: Knockdown of PTPMT1 expression (immunoblot); conditions: Amaxa nucleoporation, INS-1 832/13 cells
Method: as §1
FIG. 10 illustrates that PTPMT1 is involved in the regulation of mitochondrial ATP production. […] In C whole cell ADP was measured as above.
To simultaneously assess the effect that knockdown of PTPMT1 has on mitochondrial phosphoproteins and PI(5)P levels, its expression was knocked-down in a large quantity of INS-1 832/13 cells using adenovirus-delivered siRNA. […]

PTPMT1 siRNA: Ambion siRNA sense 5′-GUCUGUGGAUGACAAAGAAtt-3′ (SEQ ID NO:3), antisense UUCUUUGUCAUCCACAGACtt-3′ (SEQ ID NO:4) (sense GUCUGUGGAUGACAAAGAATT; antisense UUCUUUGUCAUCCACAGACTT; chemistry not given here)
Insulin secretion versus control (INS-1 832/13 cells [1]): increased insulin secretion at nearly all time points | Increase in ATP levels over control cells (INS-1 832/13 cells [2]; 72 h post siRNA, 2 hr in 3.0 mM glucose, average of three experiments): 82% | ADP levels versus control (INS-1 832/13 cells [2]; 72 h post siRNA, low glucose 2 h): Very little, if any, difference | ATP levels versus control with FCCP (INS-1 832/13 cells [2]; same buffer containing 10 μM FCCP): no difference in ATP levels | Endogenous PTPMT1 expression (PTPMT1): highly effective at ablating endogenous PTPMT1 expression
